The source of these data is article PMC11896996, “Emodin mitigates rheumatoid arthritis through direct binding to TNF-α” (Frontiers in Pharmacology, 2025).

The assay deals with T1, TNF-α (Homo sapiens, UniProt P01375).
T1 construct: Human TNF-α recombinant protein (Peprotech)
Briefly: SPR (Biacore T200, hTNF-α immobilized on CM5); BLI gave KD […]; TNF-α-TNFR1 ELISA IC50 […]. The class given is binding. For orientation: SPR reads the build-up and loss of mass on a sensor chip optically.

T1 sequence (P01375 77-233): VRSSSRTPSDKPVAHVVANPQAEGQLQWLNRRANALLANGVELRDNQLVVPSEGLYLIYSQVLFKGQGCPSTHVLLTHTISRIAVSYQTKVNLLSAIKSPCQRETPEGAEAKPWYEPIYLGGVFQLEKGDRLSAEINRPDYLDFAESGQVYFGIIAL

With `Cc1cc(O)c2c(c1)C(=O)c1cc(O)cc(O)c1C2=O` [emodin, 1,3,8-trihydroxy-6-methylanthraquinone], the Kd (in general, a measure of binding affinity in units of concentration) is approximately 26.5 µM.
